These are literature values, as cited in US6960354B1, “Membrane lipid compositions” (Phares Technology BV, priority 1999, dated 2005).

The structures appear in SMILES notation.

On to `O=C(O)c1ccccc1O` [Salicylic acid], for which, for the setting “ethanol”, the solubility in ethanol entry is given as “soluble”. The solubility in water result (water) is listed as “only sparingly soluble”.
